From ChEMBL document CHEMBL1201862, “PubChem BioAssay data set” (2004)
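Compound exposure: 48 hours, 5 concentrations, 96-well plates. Here, GI50 denotes the concentration required for 50% inhibition of growth.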 The source made the active and inactive calls. Rule as the data show it: active = GI50 up to about 1.1 µM and inactive = higher.

Columns and labels:
Assay in all cases: DTP human tumour cell line panel, 48 h
A549 = system: A549
ACHN = system: ACHN
BT-549 = system: BT-549
EKVX = system: EKVX
HCC 2998 = system: HCC 2998
HCT-116 = system: HCT-116
MCF7 = system: MCF7
MDA-MB-231 = system: MDA-MB-231
MDA-N = system: MDA-N
NCI-H23 = system: NCI-H23
NCI-H522 = system: NCI-H522
NCI/ADR-RES = system: NCI/ADR-RES
OVCAR-5 = system: OVCAR-5
SK-MEL-28 = system: SK-MEL-28
SN12C = system: SN12C
T47D = system: T47D
U-251 = system: U-251
UACC-257 = system: UACC-257
MOLT-4 = system: MOLT-4

## COc1ccccc1NC(=O)CC(=O)N1N=C(C)C(/N=N/c2ccc(C(=O)O)cc2)C1=O (stereo unspecified)
A549
  GI50: > 100 µM (inactive)
ACHN
  GI50: > 100 µM (inactive)
BT-549
  GI50: > 100 µM (inactive)
EKVX
  GI50: 28.6 µM (inactive)
HCC 2998
  GI50: > 100 µM (inactive)
HCT-116
  GI50: > 100 µM (inactive)
MCF7
  GI50: > 100 µM (inactive)
MDA-MB-231
  GI50: > 100 µM (inactive)
MDA-N
  GI50: > 100 µM (inactive)
NCI-H23
  GI50: > 100 µM (inactive)
NCI-H522
  GI50: > 100 µM (inactive)
NCI/ADR-RES
  GI50: > 100 µM (inactive)
OVCAR-5
  GI50: > 100 µM (inactive)
SK-MEL-28
  GI50: > 100 µM (inactive)
SN12C
  GI50: > 100 µM (inactive)
T47D
  GI50: > 100 µM (inactive)
U-251
  GI50: > 100 µM (inactive)
UACC-257
  GI50: > 100 µM (inactive)

## O=C(N(O)c1ccccc1Cl)C(O)(c1ccccc1)c1ccccc1
A549
  GI50: 71.1 µM (inactive)
ACHN
  GI50: 52.8 µM (inactive)
BT-549
  GI50: 60.1 µM (inactive)
EKVX
  GI50: > 100 µM (inactive)
HCC 2998
  GI50: 35.4 µM (inactive)
HCT-116
  GI50: > 100 µM (inactive)
MCF7
  GI50: 56.8 µM (inactive)
MDA-MB-231
  GI50: > 100 µM (inactive)
MDA-N
  GI50: 67.1 µM (inactive)
MOLT-4
  GI50: 30.8 µM (inactive)
NCI-H23
  GI50: > 100 µM (inactive)
NCI-H522
  GI50: 33 µM (inactive)
NCI/ADR-RES
  GI50: 63.8 µM (inactive)
OVCAR-5
  GI50: 82 µM (inactive)
SK-MEL-28
  GI50: 93.3 µM (inactive)
SN12C
  GI50: > 100 µM (inactive)
T47D
  GI50: 47 µM (inactive)
U-251
  GI50: 40.6 µM (inactive)
UACC-257
  GI50: > 100 µM (inactive)

## Oc1cc(CN2COc3ccccc32)c(O)cc1CNC1CCCCC1
A549
  GI50: > 100 µM (inactive)
ACHN
  GI50: 29.2 µM (inactive)
BT-549
  GI50: 29.9 µM (inactive)
EKVX
  GI50: 17.3 µM (inactive)
HCT-116
  GI50: 18.3 µM (inactive)
MCF7
  GI50: 20.4 µM (inactive)
MDA-MB-231
  GI50: 21.9 µM (inactive)
MDA-N
  GI50: 17.7 µM (inactive)
MOLT-4
  GI50: 8.79 µM (inactive)
NCI-H23
  GI50: 22.3 µM (inactive)
NCI-H522
  GI50: 14.1 µM (inactive)
NCI/ADR-RES
  GI50: 37.2 µM (inactive)
OVCAR-5
  GI50: > 100 µM (inactive)
SK-MEL-28
  GI50: 21.8 µM (inactive)
SN12C
  GI50: 30.7 µM (inactive)
T47D
  GI50: 26.4 µM (inactive)
U-251
  GI50: 17.7 µM (inactive)
UACC-257
  GI50: 15 µM (inactive)

## O=C(O[C@@H](/C=C/c1ccccc1)P1(=O)N(Cc2ccccc2)[C@H]2CCCC[C@@H]2N1Cc1ccccc1)c1ccccc1
A549
  GI50: 3.61 µM (inactive)
ACHN
  GI50: 2.32 µM (inactive)
BT-549
  GI50: 5.96 µM (inactive)
EKVX
  GI50: 4.12 µM (inactive)
HCC 2998
  GI50: 2.58 µM (inactive)
HCT-116
  GI50: 3.02 µM (inactive)
MCF7
  GI50: 2.32 µM (inactive)
MDA-MB-231
  GI50: 2.29 µM (inactive)
MDA-N
  GI50: 4.22 µM (inactive)
NCI-H23
  GI50: 2.96 µM (inactive)
NCI-H522
  GI50: 3.55 µM (inactive)
NCI/ADR-RES
  GI50: 3.52 µM (inactive)
OVCAR-5
  GI50: 3.86 µM (inactive)
SK-MEL-28
  GI50: 7.78 µM (inactive)
SN12C
  GI50: 2.53 µM (inactive)
T47D
  GI50: 2.44 µM (inactive)
U-251
  GI50: 2.45 µM (inactive)
UACC-257
  GI50: 2.86 µM (inactive)

## COC(=O)C#Cc1cccc(OC)c1OC
A549
  GI50: 37.5 µM (inactive)
ACHN
  GI50: 60 µM (inactive)
BT-549
  GI50: 62.2 µM (inactive)
EKVX
  GI50: 19.5 µM (inactive)
HCC 2998
  GI50: 24.4 µM (inactive)
HCT-116
  GI50: 33.6 µM (inactive)
MCF7
  GI50: 19.7 µM (inactive)
MDA-MB-231
  GI50: 62.8 µM (inactive)
MDA-N
  GI50: 40.7 µM (inactive)
MOLT-4
  GI50: 14 µM (inactive)
NCI-H23
  GI50: 41.3 µM (inactive)
NCI/ADR-RES
  GI50: 30.3 µM (inactive)
OVCAR-5
  GI50: 22.5 µM (inactive)
SK-MEL-28
  GI50: 38.9 µM (inactive)
SN12C
  GI50: 48.1 µM (inactive)
T47D
  GI50: > 100 µM (inactive)
U-251
  GI50: 31.8 µM (inactive)
UACC-257
  GI50: > 100 µM (inactive)

## N/C(CCSCCSCC/C(N)=N\O)=N\O
A549
  GI50: > 100 µM (inactive)
ACHN
  GI50: > 100 µM (inactive)
BT-549
  GI50: > 100 µM (inactive)
EKVX
  GI50: > 100 µM (inactive)
HCC 2998
  GI50: > 100 µM (inactive)
HCT-116
  GI50: > 100 µM (inactive)
MCF7
  GI50: > 100 µM (inactive)
MDA-MB-231
  GI50: > 100 µM (inactive)
MDA-N
  GI50: > 100 µM (inactive)
MOLT-4
  GI50: > 100 µM (inactive)
NCI-H23
  GI50: > 100 µM (inactive)
NCI-H522
  GI50: > 100 µM (inactive)
NCI/ADR-RES
  GI50: > 100 µM (inactive)
OVCAR-5
  GI50: > 100 µM (inactive)
SK-MEL-28
  GI50: > 100 µM (inactive)
SN12C
  GI50: > 100 µM (inactive)
T47D
  GI50: > 100 µM (inactive)
U-251
  GI50: > 100 µM (inactive)

## Cc1nc2c(=O)n(-c3ccccc3)c3ccccc3c2o1
A549
  GI50: > 100 µM (inactive)
ACHN
  GI50: > 100 µM (inactive)
BT-549
  GI50: > 100 µM (inactive)
EKVX
  GI50: > 100 µM (inactive)
HCC 2998
  GI50: > 100 µM (inactive)
HCT-116
  GI50: > 100 µM (inactive)
MCF7
  GI50: > 100 µM (inactive)
MDA-MB-231
  GI50: > 100 µM (inactive)
MDA-N
  GI50: > 100 µM (inactive)
MOLT-4
  GI50: > 100 µM (inactive)
NCI-H23
  GI50: > 100 µM (inactive)
NCI/ADR-RES
  GI50: > 100 µM (inactive)
OVCAR-5
  GI50: > 100 µM (inactive)
SK-MEL-28
  GI50: > 100 µM (inactive)
SN12C
  GI50: > 100 µM (inactive)
T47D
  GI50: > 100 µM (inactive)
U-251
  GI50: > 100 µM (inactive)
UACC-257
  GI50: > 100 µM (inactive)

## O=C1c2ccccc2-c2c1c(-c1ccc(F)cc1)nc1ccc3ccccc3c21
A549
  GI50: > 100 µM (inactive)
ACHN
  GI50: > 100 µM (inactive)
BT-549
  GI50: > 100 µM (inactive)
EKVX
  GI50: > 100 µM (inactive)
HCC 2998
  GI50: > 100 µM (inactive)
HCT-116
  GI50: > 100 µM (inactive)
MCF7
  GI50: > 100 µM (inactive)
MDA-MB-231
  GI50: > 100 µM (inactive)
MDA-N
  GI50: > 100 µM (inactive)
MOLT-4
  GI50: > 100 µM (inactive)
NCI-H23
  GI50: > 100 µM (inactive)
NCI/ADR-RES
  GI50: > 100 µM (inactive)
OVCAR-5
  GI50: > 100 µM (inactive)
SK-MEL-28
  GI50: > 100 µM (inactive)
SN12C
  GI50: > 100 µM (inactive)
T47D
  GI50: > 100 µM (inactive)
U-251
  GI50: > 100 µM (inactive)
UACC-257
  GI50: > 100 µM (inactive)

## [N-]=[N+]=NC1C(O)C(CO)OC1n1cnc2c(N)ncnc21 (stereo unspecified)
A549
  GI50: 47.5 µM (inactive)
ACHN
  GI50: 5.28 µM (inactive)
BT-549
  GI50: 54.8 µM (inactive)
EKVX
  GI50: > 100 µM (inactive)
HCC 2998
  GI50: 29.7 µM (inactive)
HCT-116
  GI50: 42.3 µM (inactive)
MCF7
  GI50: 5.21 µM (inactive)
MDA-MB-231
  GI50: > 100 µM (inactive)
MDA-N
  GI50: 71.3 µM (inactive)
MOLT-4
  GI50: 9.51 µM (inactive)
NCI-H23
  GI50: 30.5 µM (inactive)
NCI-H522
  GI50: 65.8 µM (inactive)
NCI/ADR-RES
  GI50: 27.1 µM (inactive)
OVCAR-5
  GI50: > 100 µM (inactive)
SK-MEL-28
  GI50: > 100 µM (inactive)
SN12C
  GI50: 25.9 µM (inactive)
T47D
  GI50: 8.83 µM (inactive)
U-251
  GI50: > 100 µM (inactive)
UACC-257
  GI50: > 100 µM (inactive)

## Cc1ccc(NCCN(C)C)c2c(=O)c3cc(O)ccc3oc12
A549
  GI50: 6.25 µM (inactive)
ACHN
  GI50: 4.62 µM (inactive)
BT-549
  GI50: 16.7 µM (inactive)
EKVX
  GI50: 15.7 µM (inactive)
HCC 2998
  GI50: 11.9 µM (inactive)
HCT-116
  GI50: 4.86 µM (inactive)
MCF7
  GI50: 5.38 µM (inactive)
MDA-MB-231
  GI50: 9.04 µM (inactive)
MDA-N
  GI50: 10.7 µM (inactive)
MOLT-4
  GI50: 1.11 µM (active)
NCI-H23
  GI50: 12.6 µM (inactive)
NCI-H522
  GI50: 8.15 µM (inactive)
NCI/ADR-RES
  GI50: 10.6 µM (inactive)
OVCAR-5
  GI50: 15.5 µM (inactive)
SK-MEL-28
  GI50: 14.8 µM (inactive)
SN12C
  GI50: 7.59 µM (inactive)
T47D
  GI50: 16.5 µM (inactive)
U-251
  GI50: 8.2 µM (inactive)
UACC-257
  GI50: 18.3 µM (inactive)

## COc1ccc(-c2oc3c(CC(=O)O)cccc3c(=O)c2OC)cc1
A549
  GI50: > 100 µM (inactive)
ACHN
  GI50: > 100 µM (inactive)
BT-549
  GI50: > 100 µM (inactive)
EKVX
  GI50: > 100 µM (inactive)
HCC 2998
  GI50: > 100 µM (inactive)
HCT-116
  GI50: > 100 µM (inactive)
MCF7
  GI50: > 100 µM (inactive)
MDA-MB-231
  GI50: > 100 µM (inactive)
MDA-N
  GI50: > 100 µM (inactive)
MOLT-4
  GI50: > 100 µM (inactive)
NCI-H23
  GI50: > 100 µM (inactive)
NCI-H522
  GI50: > 100 µM (inactive)
NCI/ADR-RES
  GI50: > 100 µM (inactive)
OVCAR-5
  GI50: > 100 µM (inactive)
SN12C
  GI50: > 100 µM (inactive)
T47D
  GI50: > 100 µM (inactive)
U-251
  GI50: > 100 µM (inactive)
UACC-257
  GI50: > 100 µM (inactive)
